Laboratory results as given in patent publication US20070191495A1, “Lipase inhibitor” (FUJI OIL COMPANY, LIMITED, priority 2004, published 2007).

What was measured:
pig pancreatic lipase = biological target: T1, pig pancreatic lipase (Sus scrofa, UniProt P00591); assay: lipase activity measurement (free fatty acid released from emulsified fat, OD480); assay type: biochemical; settings: for Relative activity of test fat to soybean oil: 37° C., 1 hour
T1 construct: purchased Sigma
T1 sequence (P00591 1-450): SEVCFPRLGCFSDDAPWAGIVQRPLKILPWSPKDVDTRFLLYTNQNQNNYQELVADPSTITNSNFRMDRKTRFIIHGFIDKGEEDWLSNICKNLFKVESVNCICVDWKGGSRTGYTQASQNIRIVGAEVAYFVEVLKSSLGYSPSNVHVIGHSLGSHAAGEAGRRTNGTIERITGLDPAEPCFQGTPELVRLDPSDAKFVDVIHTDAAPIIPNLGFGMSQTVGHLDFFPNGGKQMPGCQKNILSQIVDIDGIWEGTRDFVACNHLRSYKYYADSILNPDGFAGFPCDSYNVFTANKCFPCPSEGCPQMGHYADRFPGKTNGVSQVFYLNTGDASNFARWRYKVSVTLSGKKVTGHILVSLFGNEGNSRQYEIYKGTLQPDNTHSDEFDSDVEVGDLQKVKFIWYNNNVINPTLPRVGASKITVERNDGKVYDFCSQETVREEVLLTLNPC
Protocol: (§1) Soybean oils of which 1 part (2O2 purity: about 0.8%), 5 parts (2O2 purity: about 4.2%), 10 parts (2O2 purity: about 8.3%) and 50 parts (2O2 purity about: 41.5%) were replaced with the 2O2 fraction obtained as described above, and the 2O2 fraction itself (2O2 purity: 83%) were used for the following lipase activity measurement. To 80 mg of each oil, 80 mg of phosphatidylcholine (Sigma), 5 mg of sodium taurocholate (Wako Pure Chemical Industries, Ltd.), and 9 ml of a 0.1 M TES buffer (PH 7) containing 0.1 M NaCl were added and the mixture was emulsified with an ultrasound oscillator for 1 minute to obtain a substrate. To 300 μl of the substrate, 5 μl (5U) of a pig pancreatic lipase (Sigma) was added and then reacted at 37° C. for 1 hour. To the reaction mixture was then added 3 ml of an extraction solvent (a mixture of chloroform/heptane/methanol=49 parts/49 parts/2 parts). The mixture was stirred vigorously and then centrifuged at 2500 rpm for 5 minutes. The upper layer was removed. To the lower layer was added 1 ml of a copper regent (prepared by dissolving 2.98 g of triethanolamine, 2.42 g of copper nitrate and 0.48 g of NaOH in 200 ml of water and then adding 66 g of NaCl). The mixture was stirred for 10 minutes and then centrifuged at 2500 rpm for 10 minutes to take 1.5 ml of the upper layer as a sample. To the sample was added 1.5 ml of a color-producing reagent (prepared by 0.2 g of bathocuproin and 0.1 g of butylhydroxyanisole in 200 ml of chloroform) and an absorbance at OD480 was measured as the quantity of free fatty acid.
as §1, with “(LUU/UUL” for “(2O2”, “0.7%),” for “0.8%),”, “3.5%) and” for “4.2%),”, “7.0%)” for “8.3%) and 50 parts (2O2 purity about: 41.5%)”, “LUU/UUL” for “2O2”, “70%)” for “83%)”
Soybean oils of which 1 part, 5 parts and 10 parts were replaced with the glyceryl ether lipid fraction obtained as described above, and the glyceryl ether lipid fraction itself were used for the following lipase activity measurement. To 80 mg of each oil, 80 mg of phosphatidylcholine (Sigma), 5 mg of sodium taurocholate (Wako Pure Chemical Industries, Ltd.), and 9 ml of a 0.1 M TES buffer (PH 7) containing 0.1 M NaCl were added and the mixture was emulsified with an ultrasound oscillator for 1 minute to obtain a substrate. To 300 μl of the substrate, 5 μl (5U) of a pig pancreatic lipase (Sigma) was added and then reacted at 37° C. for 1 hour. To the reaction mixture was then added 3 ml of an extraction solvent (a mixture of chloroform/heptane/methanol =49 parts/49 parts/2 parts). The mixture was stirred vigorously and then centrifuged at 2500 rpm for 5 minutes. […]

[1] = Digestion and absorption test in mouse; assay type: in vivo, C57BL/6J mice; settings: for Body fat percentage: PIXImus2; for Body weight: in g (unit assumed)
Protocol: Using the 2O2 fraction obtained in Preparation Example 1 and mice, a digestion and absorption test was performed for about 2 months. Seven-week-old C57BL/6J mice were pre-reared for 1 week and used for the test. The compounded feed shown in Table 2, which is prepared by partially modifying AIN-93G composition, or soybean oil as a control was fed to the mice for about 2 months. Each group consisted of 6 mice. After reared for about 2 months, a change in the body weight, feed efficiency and body fat percentage were measured. For measuring body fat percentage, an X-ray bone density measuring apparatus for exclusive use in experimental mice, PIXImus2 (GE Medical Systems) was used. As a result of a digestion and adsorption test on mice for 56 days, in a group using the 2O2 fraction, the body weight was reduced by about 10%, the feed efficiency was reduced by 17%, and the body fat percentage was reduced by about 14%.
Using the LUU/UUL fraction obtained in Preparation Example 3 and mice, a digestion and absorption test was performed for about 2 months. Seven-week-old C57BL/6J mice were pre-reared for 1 week and used for the test. The compounded feed shown in Table 5, which is prepared by partially modifying AIN-93G composition, or soybean oil as a control was fed to the mice for about 2 months. Each group consisted of 6 mice. After reared for about 2 months, a change in the body weight, feed efficiency and body fat percentage were measured. For measuring body fat percentage, an X-ray bone density measuring apparatus for exclusive use in experimental mice, PIXImus2 (GE Medical Systems) was used. As a result of a digestion and adsorption test on mice for 56 days, in a group using the […] fraction, the body weight was reduced by about 9%, the feed efficiency was reduced by 12%, and the body fat percentage was reduced by about 13%.
Using the glyceryl ether lipid fraction obtained in Preparation Example 4 and mice, a digestion and absorption test was performed for about 2 months. Seven-week-old C57BL/6J mice were pre-reared for 1 week and used for the test. The compounded feed shown in Table 8, which is prepared by partially modifying AIN-93G composition, or soybean oil as a control was fed to the mice for about 2 months. Each group consisted of 6 mice. After reared for about 2 months, a change in the body weight, feed efficiency and body fat percentage were measured. For measuring body fat percentage, an X-ray bone density measuring apparatus for exclusive use in experimental mice, PIXImus2 (GE Medical Systems) was used. As a result of a digestion and adsorption test on mice for 56 days, in a group using soybean oil/the glyceryl ether lipid fraction, the body weight and the feed efficiency were reduced by bout 10%, and the body fat percentage was reduced by about 12%.

[2] = fat composition soybean oil/test fat 0/100 (part), the fraction itself
[3] = fat composition soybean oil/test fat 50/50 (part)
[4] = fat composition soybean oil/test fat 90/10 (part)
[5] = fat composition soybean oil/test fat 95/5 (part)
[6] = fat composition soybean oil/test fat 99/1 (part)
[7] = soybean oil of which 1 part was replaced with the test fat
[8] = 56 days, versus soybean oil group
[9] = after rearing for 56 days, feed with 10.0 wt % soybean oil + 0.5 wt % test fraction
[10] = before initiation of rearing, feed with 10.0 wt % soybean oil + 0.5 wt % test fraction

| SMILES | Relative activity of test fat to soybean oil (pig pancreatic lipase; [2]) [%] | Relative activity of test fat to soybean oil (pig pancreatic lipase; [3]) [%] | Relative activity of test fat to soybean oil (pig pancreatic lipase; [4]) [%] | Relative activity of test fat to soybean oil (pig pancreatic lipase; [5]) [%] | Relative activity of test fat to soybean oil (pig pancreatic lipase; [6]) [%] | activity inhibited by (pig pancreatic lipase; [7]) | activity inhibited by (pig pancreatic lipase; soybean oil of which 5 parts were replaced with the test fat) | body fat percentage reduced by [1, 8] | body weight reduced by [1, 8] | feed efficiency reduced by [1, 8] [%] | Body fat percentage [1, 9] | Feed efficiency [1, 9] | Body weight [1, 9] | Body fat percentage [1, 10] | Body weight [1, 10] | activity inhibited by (pig pancreatic lipase; soybean oil of which 10 parts was replaced with the test fat) |
| --- | --- | --- | --- | --- | --- | --- | --- | --- | --- | --- | --- | --- | --- | --- | --- | --- |
| CCCCCCCC/C=C\CCCCCCCC(=O)OC(COC(C)=O)COC(C)=O [2O2] | 11 | 48 | 67 | 66 | 78 | about 20% | about 35% | about 14% | about 10% | 17 | 34.8 ± 2.5 | 0.061 ± 0.002 | 30.7 ± 1.4 | 19.1 ± 0.9 | 22.8 ± 0.3 |  |
| CCCCCCCC/C=C\CCCCCCCC(=O)OC(COC(=O)CCCCC)COC(=O)CCCCC [6O6] | 30 | 68 | 74 | 91 | 86 | about 15% |  |  |  |  |  |  |  |  |  | about 25% |
